From patent publication US8288385B2, “6-(3-aza-bicyclo[3.1.0]hex-3-yl)-2-phenyl-pyrimidines” (Actelion Pharmaceuticals Ltd., priority 2009, dated 2012)

These compounds were tested against T1, human P2Y12 receptor (Homo sapiens, UniProt Q9H244) (assay: P2Y12 receptor binding assay). Conditions: CHO cells with recombinant expression of the human P2Y12 receptor; tritium-labeled 2-methyl-S-ADP; RT, 2 hours.
T1 construct: expressed in transfected cells; host or cells: Chinese Hamster Ovary (CHO) cells
T1 sequence (Q9H244 whole entry): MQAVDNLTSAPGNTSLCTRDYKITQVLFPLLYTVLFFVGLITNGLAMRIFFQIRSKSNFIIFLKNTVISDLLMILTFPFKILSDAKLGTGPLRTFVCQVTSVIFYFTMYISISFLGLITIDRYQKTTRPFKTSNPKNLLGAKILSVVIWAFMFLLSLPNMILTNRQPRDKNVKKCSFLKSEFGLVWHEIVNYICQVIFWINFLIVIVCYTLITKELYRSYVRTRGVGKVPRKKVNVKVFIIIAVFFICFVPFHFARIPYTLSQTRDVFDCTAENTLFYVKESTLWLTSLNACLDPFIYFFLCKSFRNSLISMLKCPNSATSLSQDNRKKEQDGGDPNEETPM

Which IC50 does the source give for `CCCCOC(=O)N1CCN(C(=O)[C@H](CP(=O)(OCC)OCC)NC(=O)c2cc(N3C[C@@H]4[C@H](C3)[C@H]4C(=O)OCC)nc(-c3ccccc3)n2)CC1` [Example 50, (1α,5α,6α)-3-{6-[(R)-2-(4-Butoxycarbonyl-piperazin-1-yl)-1-(diethoxy-phosphorylmethyl)-2-oxo-ethylcarbamoyl]-2-phenyl-pyrimidin-4-yl}-3-aza-bicyclo[3.1.0]hexane-6-carboxylic acid ethyl ester] here?
Its IC50 is 383 nM.

`CCCCOC(=O)N1CCN(C(=O)[C@H](CP(=O)(O)O)NC(=O)c2cc(N3C[C@@H]4[C@H](C3)[C@H]4C(=O)OCC)nc(-c3ccccc3)n2)CC1` [Example 51, (1α,5α,6α)-3-{6-[(R)-2-(4-Butoxycarbonyl-piperazin-1-yl)-2-oxo-1-phosphonomethyl-ethylcarbamoyl]-2-phenyl-pyrimidin-4-yl}-3-aza-bicyclo[3.1.0]hexane-6-carboxylic acid ethyl ester] was tested. Which IC50 did it give?
The IC50 was 2.5 nM.

`CCCCOC(=O)N1CCN(C(=O)[C@H](CP(=O)(OCOC(C)=O)OCOC(C)=O)NC(=O)c2cc(N3C[C@@H]4[C@H](C3)[C@H]4C(=O)OCC)nc(-c3ccccc3)n2)CC1` [Example 52, (1α,5α,6α)-3-{6-[(R)-1-(Bis-acetoxymethoxy-phosphorylmethyl)-2-(4-butoxycarbonyl-piperazin-1-yl)-2-oxo-ethylcarbamoyl]-2-phenyl-pyrimidin-4-yl}-3-aza-bicyclo[3.1.0]hexane-6-carboxylic acid ethyl ester] was tested. Which IC50 did it give?
Its IC50 is 4 nM.

How did the IC50 turn out when `CCCCOC(=O)N1CCN(C(=O)[C@H](CP(=O)(N[C@@H](C)C(=O)OCC)N[C@@H](C)C(=O)OCC)NC(=O)c2cc(N3C[C@@H]4[C@H](C3)[C@H]4C(=O)OCC)nc(-c3ccccc3)n2)CC1` [Example 53, N,N′-Bis-((S)-1-Ethoxycarbonylethyl)-(R)-2-[(4-[(1α,5α,6α)-6-ethoxycarbonyl-3-aza-bicyclo[3.1.0]hex-3-yl]-2-phenyl-pyrimidin-6-carbonyl)-amino]-3-oxo-3-(4-butoxy-carbonyl-piperazin-1-yl)-propyl-phosphonic acid diamide] was run?
Its IC50 is 110 nM.

`CCCCOC(=O)N1CCN(C(=O)[C@H](CP(=O)(OCOC(=O)OCC)OCOC(=O)OCC)NC(=O)c2cc(N3C[C@@H]4[C@H](C3)[C@H]4C(=O)OCC)nc(-c3ccccc3)n2)CC1` [Example 54, (1α,5α,6α)-3-{6-[(R)-1-(Bis-ethoxycarbonyloxymethoxy-phosphorylmethyl)-2-(4-butoxycarbonyl-piperazin-1-yl)-2-oxo-ethylcarbamoyl]-2-phenyl-pyrimidin-4-yl}-3-aza-bicyclo[3.1.0]hexane-6-carboxylic acid ethyl ester] was tested. Which IC50 did it give?
The IC50 was 15 nM.
